{"source": "patent US20150038526A1", "about": "“FLUORINE-CONTAINING 5-[2-(PYRID-3-YL)-ETHYL]-2,3,4-TETRAHYDRO-1H-PYRIDO[4,3-B]INDOLES AS AGENTS FOR REDUCING UNCONTROLLED PROTEIN AGGREGATION” (FEDERALNOE GOSUDARSTVENNOE BUDZHETNOE UCHREZHDENIE NAUKI …, priority 2011, published 2015)", "origin": "cited, not measured here", "test_system": "gamma-synuclein protein", "conditions": "tissues of the nervous system of model animals"}
{"smiles": "Cc1ccc2c(c1)c1c(n2CCc2ccc(C)nc2)CCN(C)C1", "note": "[Dimebon]", "values": [{"measurement": "formation and/or elimination of amyloid-like inclusions formed by gamma-synuclein", "result": "modulates the molecular cellular processes of formation and/or elimination of pathological protein depositions"}]}
